Literature values, collected in patent US10961240B2, “Formulations of a compound modulating kinases” (Plexxikon Inc., priority 2017, dated 2021).

Columns and labels:
[1] = test system: neurofibromatosis affected mice
[2] = test system: microglia; settings: sustained after intracerebral hemorrhage
[3] = test system: Hodgkin Lymphoma; settings: heavily pretreated patient cohort
[4] = test system: mouse melanoma models; settings: with tumor-specific CD8 T cells
[5] = test system: MPNST xenograft
[6] = test system: TGCT; settings: phase III

FC(F)(F)c1ccc(CNc2ccc(Cc3c[nH]c4ncc(Cl)cc34)cn2)cn1 [Compound I]
bone loss [1]: prevented bone loss | microglia depletion [2]: effectively depleted microglia | efficacy [3]: modest efficacy | safety profile [3]: manageable safety profile | control of tumor outgrowth [4]: strongly promoted the control of tumor outgrowth | tumor growth ([5]; MPNST xenograft): significant suppression of tumor growth | blockade of receptor tyrosine kinases ([5]; MPNST xenograft samples): sustained blockade of c-Kit, c-Fms and PDGFRβ | primary endpoint: tumor response measured by tumor size reduction [6]: met its primary endpoint
